From publication PMC11768629, “Potential Interaction of Pinocembrin with Drug Transporters and Hepatic Drug-Metabolizing Enzymes” (Pharmaceuticals, 2025)

Legend:
hOAT3-MDCK cells = test: Cell viability assay (MTT) in hOAT3-MDCK cells; type: cell-based, canine; conditions: tenofovir 5 µM, 48 h
Experimental: (§1) The hOAT1-MDCK cells and hOAT3-MDCK cells were treated with 1, 10, and 50 μM pinocembrin for 24 h, followed by a measurement of ^3H-PAH and ^3H-estrone sulfate cellular accumulation. […] The inhibitory effect of pinocembrin occurred in a concentration-dependent manner.
(§2) We determined whether the inhibitory effect of pinocembrin on hOAT1 and hOAT3. We studied whether pinocembrin could reduce the renal toxicity of tenofovir, a substrate of hOAT1 and hOAT3 known for inducing renal tubular dysfunction.
(§3) The confluent cells in 96-well plates were treated with pinocembrin for 48 h at 37 °C. After that, the cells were incubated with 0.5 mg/mL MTT solution for four hours. The MTT solution was removed, and DMSO (100 µL) was added to dissolve the crystal formazan. The formazan content was detected at a wavelength of 570 nm using a microplate reader. Cell viability was reported as a percentage of the vehicle-treated cells.

hOAT1-MDCK cells = test: Cell viability assay (MTT) in hOAT1-MDCK cells; type: cell-based, canine; conditions: tenofovir 5 µM, 48 h
Experimental: as §1, §2, §3

Structure (SMILES): C[C@H](Cn1cnc2c(N)ncnc21)OCP(=O)(O)O [tenofovir]
- cell viability (hOAT3-MDCK cells): did not affect the viability
- cell viability (hOAT1-MDCK cells): significantly reduced the cell viability
